As a reminder, the IC50 is the concentration needed to halve the response being measured. Low values mean higher potency, high ones lower potency. In general, Ki refers to a measure of affinity in units of concentration, obtained from inhibition or displacement. A lower Ki goes with higher affinity.

Test [1] addresses T1, Dimer of Gag-Pol polyprotein [501-599,Q508K,L534I,L564I,C568A,C596A] (Human immunodeficiency virus 1, UniProt P03367, C568A/C596A/L534I/L564I/Q508K).
T1 construct: 501-599
Briefly: Protease Inhibition Assay. The note with it: pH 6.8; 25 °C.

In test [2] the target is T1, Dimer of Gag-Pol polyprotein [501-599,Q508K,L534I,L564I,C568A,C596A]. As to the kind of experiment: Protease Inhibition Assay. On the procedure:
The Ki values were determined using fluorogenic substrate, 2-(aminobenzoyl)-Thr-Ile-Nle-Phe(p-NO2)-Gln-ArgNH2. A standard curve relating changes in fluorescent intensity to changes in concentration of product was used to convert fluorescent changes into molar velocities. The amount of cleavage was determined by HPLC.

For `COc1ccc(S(=O)(=O)N(C[C@@H](O)[C@H](Cc2ccccc2)NC(=O)O[C@H]2CO[C@H]3OCC[C@H]32)OC2CCCC2)cc1` [N-alkoxysulfonamide analog entry k], inhibition in test [1] was half-maximal at 6000 pM (IC50). Further, the Ki in test [2] (pH 6.8, 25 °C) is under 5 pM.

Molecule `O=C(N[C@@H](Cc1ccccc1)[C@H](O)CN(OC1CCCC1)S(=O)(=O)c1ccc2c(c1)OCCO2)O[C@H]1CO[C@H]2OCC[C@H]21` [N-alkoxysulfonamide analog entry p] returned a Ki in test [2] of under 5 pM.

`COC(=O)N[C@H](C(=O)N[C@@H](Cc1ccccc1)[C@H](O)CN(OC1CCCC1)S(=O)(=O)c1ccc(OC)cc1)C(C)(C)C` [methyl N-[(1S)-1-{[(2S,3R)-4-[(cyclopentyloxy)(4-methoxybenzene)sulfonamido]-3-hydroxy-1-phenylbutan-2-yl]carbamoyl}-2,2-dimethylpropyl]carbamate]: 203000 pM corresponded to half-maximal inhibition in test [1] (IC50).

In turn, `COc1ccc(S(=O)(=O)N(C[C@@H](O)[C@H](Cc2ccccc2)NC(=O)[C@@H](NC(=O)c2ccc3ccccc3n2)C(N)=O)OC2CCCC2)cc1` [N-alkoxysulfonamide analog entry j] showed an IC50 in test [1] of 24000 pM. In test [2] (pH 6.8, 25 °C), this molecule gave a Ki of under 5 pM.

Molecule `O=C(N[C@@H](Cc1ccccc1)[C@H](O)CN(OC1CCCCC1)S(=O)(=O)c1ccc2c(c1)OCCO2)O[C@H]1CO[C@H]2OCC[C@H]21` [(3R,3aS,6aR)-hexahydrofuro[2,3-b]furan-3-yl N-[(2S,3R)-4-[(cyclohexyloxy)(2,3-dihydro-1,4-benzodioxine-6-)sulfonamido]-3-hydroxy-1-phenylbutan-2-yl]carbamate] registered a Ki in test [2] of under 5 pM.

`O=C(N[C@@H](Cc1ccccc1)[C@H](O)CN(OC1CCCCC1)S(=O)(=O)c1ccc2c(c1)OCO2)O[C@H]1CO[C@H]2OCC[C@H]21` [(3R,3aS,6aR)-hexahydrofuro[2,3-b]furan-3-yl N-[(2S,3R)-4-[2H-1,3-benzodioxole-5-(cyclohexyloxy)sulfonamido]-3-hydroxy-1-phenylbutan-2-yl]carbamate] had a Ki in test [2] of under 5 pM.

In test [2], `O=C(N[C@@H](Cc1ccccc1)[C@H](O)CN(OC1CCCC1)S(=O)(=O)c1ccc2c(c1)OCO2)O[C@H]1CO[C@H]2OCC[C@H]21` [(3R,3aS,6aR)-hexahydrofuro[2,3-b]furan-3-yl N-[(2S,3R)-4-[2H-1,3-benzodioxole-5-(cyclopentyloxy)sulfonamido]-3-hydroxy-1-phenylbutan-2-yl]carbamate] returned a Ki of under 5 pM.

In test [2], `Nc1ccc(S(=O)(=O)N(C[C@@H](O)[C@H](Cc2ccccc2)NC(=O)O[C@H]2CO[C@H]3OCC[C@H]32)OC2CCCC2)cc1` [(3R,3aS,6aR)-hexahydrofuro[2,3-b]furan-3-yl N-[(2S,3R)-4-[(4-aminobenzene)(cyclopentyloxy)sulfonamido]-3-hydroxy-1-phenylbutan-2-yl]carbamate] showed a Ki of under 5 pM.

`COc1ccc(S(=O)(=O)N(C[C@@H](O)[C@H](Cc2ccccc2)NC(=O)O[C@H]2CO[C@H]3OCC[C@H]32)OC2CCCCC2)cc1` [N-alkoxysulfonamide analog entry q] displayed a Ki in test [2] of under 5 pM.

Turning to `O=C(N[C@@H](Cc1ccccc1)[C@H](O)CN(OC1CCCCC1)S(=O)(=O)c1ccc(O)cc1)O[C@H]1CO[C@H]2OCC[C@H]21` [(3R,3aS,6aR)-hexahydrofuro[2,3-b]furan-3-yl N-[(2S,3R)-4-[(cyclohexyloxy)(4-hydroxybenzene)sulfonamido]-3-hydroxy-1-phenylbutan-2-yl]carbamate], the Ki in test [2] was under 5 pM.

As to `O=C(N[C@@H](Cc1ccccc1)[C@H](O)CN(OC1CCCC1)S(=O)(=O)c1ccc(O)cc1)O[C@H]1CO[C@H]2OCC[C@H]21` [N-alkoxysulfonamide analog entry n], the Ki in test [2] was under 5 pM.

In test [2], `Nc1cccc(S(=O)(=O)N(C[C@@H](O)[C@H](Cc2ccccc2)NC(=O)O[C@H]2CO[C@H]3OCC[C@H]32)OC2CCCC2)c1` [(3R,3aS,6aR)-hexahydrofuro[2,3-b]furan-3-yl N-[(2S,3R)-4-[(3-aminobenzene)(cyclopentyloxy)sulfonamido]-3-hydroxy-1-phenylbutan-2-yl]carbamate] displayed a Ki of under 5 pM.

The molecule `COc1ccc(S(=O)(=O)N(C[C@@H](O)[C@H](Cc2ccccc2)NC(=O)O[C@H]2CCOC2)OC2CCCC2)cc1` [(3S)-oxolan-3-yl N-[(2S,3R)-4-[(cyclopentyloxy)(4-methoxybenzene)sulfonamido]-3-hydroxy-1-phenylbutan-2-yl]carbamate] gave an IC50 in test [1] of 738000 pM. Further, the Ki in test [2] (pH 6.8, 25 °C) worked out at 190 pM.

(Values after BindingDB's records for doi:10.1016/j.bmcl.2005.05.101 (Glaxosmithkline, 2005).)
